Measured values reported in patent publication US8138361B2, “C-10 carbamates of taxanes” (The Trustees Of The University Of Pennsylvania, priority 2005, dated 2012).
Where two headings read alike, the source gives them in different places.

What was measured:
tubulin = assay: Tubulin polymerization assay (ability to promote polymerization of tubulin); format: biochemical
Excerpt: The kit is based upon an increase in quantum yield of florescence upon binding of a fluorophore to microtubules. […] Tubulin assembly may also be monitored by light scattering which is approximated by the apparent absorption at 350 nm. In the assay, BSA is employed to prevent aggregation and glycerol, which is a tubulin polymerization enhancer, is omitted from the kit to increase the signal to noise ratio. […]

tumor cell lines = assay: Cytotoxicity assay (AlamarBlue, monolayer); format: cell-based
Description: Monolayer assays with tumor cell lines (MCF-7 breast carcinoma and HT-29 colorectal carcinoma from ATCC) were carried out in triplicate in 96-well plates with PMI1640 medium containing 5% fetal bovine serum, 100 U/ml penicillin and 100 μg/ml streptomycin. […] Exponentially growing cells (5,000 MCF-7 or HT-29; 1,500 HFF) were plated in 100 μl medium and incubated overnight (5% CO2, 37° C.). Compounds (20 pM to 20 μM final concentration, 6-8 doses) and vehicle (DMSO) controls were added and the incubation was continued for an additional 72 hours. […] EC50 values were generated from dose-response curves by a 4-parameter method using Softmax PRO software, Mean FC50s (±SD) represent the average of all tests carried out for all lots of a given compound.
1. Cells: • a. Breast tumor cell lines, MCF-7 and NCI/ADR-RES • b. Colon tumor cell lines: HCT-15 and HT-29 • c. Leukemia cell line K562 and K562/R • d. Non-small cell lung cancer cell line A549 • e. Human foreskin fibroblast cells (HFF) • f. Human umbilical vein endothelial cells (HUVEC)
2. Cell Culture: • a. All tumor cells were grown in RPMI1640 medium supplemented with 5% (v/v) fetal bovine serum and the antibiotics in a final concentration of 100 U/ml of penicillin and 100 μg/ml of streptomycin in an atmosphere of 5% CO2. • b. HFF and HUVEC were grown in the medium of FGM-2 and EGM-2 from Cambrex,
3. Cytotoxicity Assay: • a. Day 1: Cells growing exponentially were transferred to 96-well tissue culture plates. All cell types were plated at a density of 1,500-5,000 cells per well in 100 μl complete medium. • b. Day 2: 100 μl of experimental compounds in complete medium was added in triplicate wells, • c. Day 5; Cell growth inhibition was assayed using the AlamarBlue (BioSource, Camarillo, Calif.) signal reduction assay. Correlation between AlamarBlue and cell proliferation has been established in the literature. Compound concentration versus relative fluorescence units was plotted.
Detailed procedures for conducting the assays are provided herein and are known in the art.

Pgp = biological target: T1, Pgp (Bos taurus, UniProt A0A3Q1MB23); assay: Rhodamine 123 uptake assay in Bovine Brain Endothelial Cells (BBEC); format: cell-based; conditions: 25 micromolar; for Rhodamine 123 uptake: 45 min incubation, fluorescence normalized to protein content, average
T1 construct: Bovine Brain Endothelial Cells (BBEC) express Pgp; endogenous in cells; host or cells: Bovine Brain Endothelial Cells (BBEC)
Description: Bovine Brain Endothelial Cells (BBEC) express Pgp and are commonly used as model for Blood Brain Barrier (BBB).
All compounds and controls were run in triplicates.
The experiment was run in two 24-wells plates. […] After addition of the test compounds, cells were incubated for 45 min. After this time the drug solutions were removed by aspiration. The monolayers were then rinsed three times with ice-cold PBSG and finally solubilized with 1 mL of lysing solution for 30 min.

[1] = average %, relative to paclitaxel
[2] = average EC50, cell line not given, 72 hours incubation

T1 sequence (A0A3Q1MB23 1-1267): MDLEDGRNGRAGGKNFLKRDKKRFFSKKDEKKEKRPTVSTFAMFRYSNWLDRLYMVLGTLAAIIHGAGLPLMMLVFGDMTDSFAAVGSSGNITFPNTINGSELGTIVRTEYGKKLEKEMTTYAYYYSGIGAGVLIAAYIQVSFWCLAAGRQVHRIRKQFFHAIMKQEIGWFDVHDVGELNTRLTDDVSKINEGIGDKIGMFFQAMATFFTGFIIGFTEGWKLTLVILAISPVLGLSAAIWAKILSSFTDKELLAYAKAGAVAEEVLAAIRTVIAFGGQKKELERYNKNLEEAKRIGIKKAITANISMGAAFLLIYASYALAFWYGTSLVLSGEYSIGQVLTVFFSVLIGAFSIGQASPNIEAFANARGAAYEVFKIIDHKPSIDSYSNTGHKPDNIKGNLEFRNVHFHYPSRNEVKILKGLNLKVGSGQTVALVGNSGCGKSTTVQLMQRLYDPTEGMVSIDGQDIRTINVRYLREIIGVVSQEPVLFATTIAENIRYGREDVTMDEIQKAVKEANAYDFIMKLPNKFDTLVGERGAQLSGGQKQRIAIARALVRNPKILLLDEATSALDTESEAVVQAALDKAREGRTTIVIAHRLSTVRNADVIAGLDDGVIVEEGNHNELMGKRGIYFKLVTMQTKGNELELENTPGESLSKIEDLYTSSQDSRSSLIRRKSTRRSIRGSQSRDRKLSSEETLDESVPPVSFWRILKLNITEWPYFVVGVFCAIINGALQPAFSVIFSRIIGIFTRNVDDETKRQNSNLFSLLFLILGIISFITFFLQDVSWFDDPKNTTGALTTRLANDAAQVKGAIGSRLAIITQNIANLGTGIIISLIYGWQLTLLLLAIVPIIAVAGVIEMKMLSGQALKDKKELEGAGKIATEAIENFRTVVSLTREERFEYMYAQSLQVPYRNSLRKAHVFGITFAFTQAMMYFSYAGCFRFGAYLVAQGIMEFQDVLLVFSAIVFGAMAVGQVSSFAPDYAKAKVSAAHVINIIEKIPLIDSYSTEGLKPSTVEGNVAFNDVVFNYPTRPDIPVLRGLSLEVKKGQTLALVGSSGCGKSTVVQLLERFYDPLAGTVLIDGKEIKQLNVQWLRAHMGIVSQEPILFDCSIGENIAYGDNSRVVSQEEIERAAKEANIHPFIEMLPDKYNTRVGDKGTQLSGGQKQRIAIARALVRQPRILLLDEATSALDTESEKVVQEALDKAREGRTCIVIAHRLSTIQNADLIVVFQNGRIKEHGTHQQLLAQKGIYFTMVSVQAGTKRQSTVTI

Compound: CC(=O)OC12COC1CC(O)C1(C)C(=O)C(OC(=O)N3CCOCC3)C3=C(C)C(OC(=O)C(O)C(NC(=O)c4ccccc4)c4ccccc4)CC(O)(C(OC(=O)c4ccccc4)C21)C3(C)C (centres unmarked) [Compound 7, PXL-10Ca-Morpholine]
- MPA: ability of the compound to promote polymerization of tubulin, expressed as percentage of the activity of paclitaxel (tubulin): a (key: a > 70%; b = 30-70%; c < 40%)
- EC50 (tumor cell lines): 10 to 500 nM

Compound: CC(=O)OC12COC1CC(O)C1(C)C(=O)C(OC(=O)n3cnc4ccccc43)C3=C(C)C(OC(=O)C(O)C(NC(=O)c4ccccc4)c4ccccc4)CC(O)(C(OC(=O)c4ccccc4)C21)C3(C)C (centres unmarked) [Compound 8, 10-O-deacetyl-paclitaxel-10-O-carbonyl-N-benzimidazole]
- MPA: ability of the compound to promote polymerization of tubulin, expressed as percentage of the activity of paclitaxel (tubulin; [1]): b (b = 30-70%)

Compound: CC(=O)OC12COC1CC(O)C1(C)C(=O)C(OC(=O)NCC(=O)O)C3=C(C)C(OC(=O)C(O)C(NC(=O)c4ccccc4)c4ccccc4)CC(O)(C(OC(=O)c4ccccc4)C21)C3(C)C (centres unmarked) [Compound 12, PXL-10Ca-Gly-OH]
- EC50 (tumor cell lines): > 500 nM
- Rhodamine 123 uptake (Pgp): a (a < 0.25)

Compound: CC(=O)OC12COC1CC(O)C1(C)C(=O)C(OC(=O)N(C)CC(=O)O)C3=C(C)C(OC(=O)C(O)C(NC(=O)c4ccccc4)c4ccccc4)CC(O)(C(OC(=O)c4ccccc4)C21)C3(C)C (centres unmarked) [Compound 13, PXL-10Ca-Sar-OH]
- EC50 (tumor cell lines; [2]): > 500 nM
- Rhodamine 123 uptake (Pgp): b (b = >0.25)

Compound: COC(=O)C(C)NC(=O)OC1C(=O)C2(C)C(O)CC3OCC3(OC(C)=O)C2C(OC(=O)c2ccccc2)C2(O)CC(OC(=O)C(O)C(NC(=O)c3ccccc3)c3ccccc3)C(C)=C1C2(C)C (centres unmarked) [Compound 39, PXL-10Ca-alanine-Me-ester]
- EC50 (tumor cell lines): < 10 nM

Compound: CC(=O)O[C@H]1C(=O)[C@@]2(C)[C@H]([C@H](OC(=O)c3ccccc3)[C@]3(O)C[C@H](OC(=O)[C@H](O)[C@@H](NC(=O)c4ccccc4)c4ccccc4)C(C)=C1C3(C)C)[C@]1(OC(C)=O)CO[C@@H]1C[C@@H]2O [PXL, Paclitaxel, reference compound]
- effect on rhodamine uptake (in words) (Pgp): higher rhodamine uptake
- Rhodamine 123 uptake (Pgp): b (b = >0.25)

Compound: PXL-10Ca-Glu
- EC50 (tumor cell lines; [2]): 10 to 500 nM

Compound: PXL-10Ca-Glucosamine [Compound 5]
- MPA: ability of the compound to promote polymerization of tubulin, expressed as percentage of the activity of paclitaxel (tubulin; [1]): a (a > 70%)
- EC50 (tumor cell lines; [2]): > 500 nM

Compound: PXL-10Ca-Gly(tBu) [Compound 14]
- MPA: ability of the compound to promote polymerization of tubulin, expressed as percentage of the activity of paclitaxel (tubulin; [1]): b (b = 30-70%)
- EC50 (tumor cell lines; [2]): 10 to 500 nM
- Rhodamine 123 uptake (Pgp): b (b = >0.25)

Compound: PXL-10Ca-Gly-N(Me)2 [Compound 15]
- EC50 (tumor cell lines; [2]): 10 to 500 nM
- Rhodamine 123 uptake (Pgp): a (a < 0.25)

Compound: PXL-10Ca-H-Lys-OH [Compound 20]
- MPA: ability of the compound to promote polymerization of tubulin, expressed as percentage of the activity of paclitaxel (tubulin; [1]): a (a > 70%)
- EC50 (tumor cell lines; [2]): > 500 nM

Compound: PXL-10Ca-N-methyl-N-butylamine [Compound 22]
- MPA: ability of the compound to promote polymerization of tubulin, expressed as percentage of the activity of paclitaxel (tubulin; [1]): a (a > 70%)
- EC50 (tumor cell lines; [2]): < 10 nM

Compound: PXL-10Ca-PEG6000-10Ca-PXL [Compound 29]
- MPA: ability of the compound to promote polymerization of tubulin, expressed as percentage of the activity of paclitaxel (tubulin; [1]): a (a > 70%)

Compound: PXL-10Ca-PEG(14)-COOH [Compound 25]
- MPA: ability of the compound to promote polymerization of tubulin, expressed as percentage of the activity of paclitaxel (tubulin; [1]): a (a > 70%)
- EC50 (tumor cell lines; [2]): > 500 nM

Compound: PXL-10Ca-PEG(29)-VBL [Compound 28]
- MPA: ability of the compound to promote polymerization of tubulin, expressed as percentage of the activity of paclitaxel (tubulin; relative to paclitaxel, given as number): 40%
- EC50 (tumor cell lines; [2]): 10 to 500 nM

Compound: PXL-10Ca-Ph-acetic acid [Compound 10]
- MPA: ability of the compound to promote polymerization of tubulin, expressed as percentage of the activity of paclitaxel (tubulin; [1]): a (a > 70%)
- EC50 (tumor cell lines; [2]): > 500 nM

Compound: PXL-10Ca-Z-Lys-OH [Compound 19]
- MPA: ability of the compound to promote polymerization of tubulin, expressed as percentage of the activity of paclitaxel (tubulin; [1]): a (a > 70%)
- EC50 (tumor cell lines; [2]): > 500 nM

Compound: PXL-10Ca-aniline [Compound 9]
- MPA: ability of the compound to promote polymerization of tubulin, expressed as percentage of the activity of paclitaxel (tubulin; [1]): b (b = 30-70%)
- EC50 (tumor cell lines; [2]): 10 to 500 nM

Compound: PXL-10Ca-di-Et-amine [Compound 23]
- MPA: ability of the compound to promote polymerization of tubulin, expressed as percentage of the activity of paclitaxel (tubulin; [1]): c (c < 40%)
- EC50 (tumor cell lines; [2]): 10 to 500 nM

Compound: PXL-10Ca-p-NO2-aniline [Compound 18]
- MPA: ability of the compound to promote polymerization of tubulin, expressed as percentage of the activity of paclitaxel (tubulin; [1]): b (b = 30-70%)
- EC50 (tumor cell lines; [2]): 10 to 500 nM

Compound: PXL-10Ca-piperidine [Compound 6]
- MPA: ability of the compound to promote polymerization of tubulin, expressed as percentage of the activity of paclitaxel (tubulin; [1]): b (b = 30-70%)
- EC50 (tumor cell lines; [2]): < 10 nM

Compound: PXL-10CaSpermine [Compound 16]
- MPA: ability of the compound to promote polymerization of tubulin, expressed as percentage of the activity of paclitaxel (tubulin; [1]): a (a > 70%)
- EC50 (tumor cell lines): > 500 nM
